Assay results reported in patent US10662194B2, “Substituted 6-anilino-9-heterocyclylpurine derivatives for inhibition of plant stress” (UNIVERZITA PALACKEHO V OLOMOUCI, priority 2014, dated 2020).
Marks after values point to notes of the source that are not given here.

Key:
[1] = system: winter rapeseed variety Benefit; experiment: Seed coating, emergence and freezing tolerance of winter rapeseed (field experiment); type: in vivo; conditions: 50 μM seed coating
Experimental: To evaluate the effect of seed coating with compound 12 on yield forming traits of winter rapeseed field plot experiment was performed in season 2010/2011 on locality Opava, Czech Republic. Seeds of winter rapeseed variety Benefit (Selgen) were coated with 50 μM concentration of compound 12 mixed into the seed coating treatment Cruiser OSR (Syngenta; 15 L of solution per 1000 kg of seeds), seeds coated with only Cruiser OSR were used for control variant. The seeds were dried and then sown in the sowing rate 700.000 seeds per hectare in 4 replications per each variant in randomized positions (each replication was 10 square meter plot). In the experiment plant emergence, freezing tolerance and final seed yield were scored. The frost tolerance was estimated by method described in (Janáček, J., Prášil, I.: Quantification of plant frost injury by nonlinear fitting of an s-shaped function. Cryo-Letters vol. 12, 1991, no. 7, 47-52).

[2] = Calcein AM viability/cytotoxicity assay, BJ; type: cell-based; conditions: human, BJ foreskin fibroblasts, FIG. 11, read-out: IC50, concentration reducing number of viable cells to 50%
Excerpt: Absence of toxic effects against mammalian (especially human) cell lines in a wide concentration range is one of the requirements on compounds intended for use in agriculture and medicine. Because toxic compounds negatively influence metabolic processes in cells, many standard cytotoxicity assays are based on measurement of metabolisation rate of various artificial substrates. Resulting product is then quantified e.g. by means of spectrometry. The assays can be easily modified for use in 96-well plates. For evaluation of cytotoxic effect of compounds of this invention, a microtiter assay based on quantification of metabolisation of Calcein AM was used. The assay is widely used in drug screening programs and in chemosensitivity testing. In live cells, Calcein AM is enzymatically hydrolysed and accumulation of resulting calcein is manifested by green fluorescence. The cytotoxicity of the studied compounds was determined with human fibroblast lines MRC-5 (lung fibroblasts) and BJ (foreskin fibroblasts). […] The fluorescence of the live cells was measured at 485 nm/538 nm (excitation/emission) with a Fluoroskan Ascent microplate reader (Labsystems). […]

recombinant AtCKX2 = target: T1, recombinant AtCKX2 (Arabidopsis thaliana, UniProt Q9FUJ3); experiment: Inhibition of cytokinin oxidase/dehydrogenase activity (PMS/MTT microtitre assay); type: biochemical
T1 construct: made in house; host or cells: S. cerevisiae strain 23344c ura-
T1 sequence (Q9FUJ3 23-501): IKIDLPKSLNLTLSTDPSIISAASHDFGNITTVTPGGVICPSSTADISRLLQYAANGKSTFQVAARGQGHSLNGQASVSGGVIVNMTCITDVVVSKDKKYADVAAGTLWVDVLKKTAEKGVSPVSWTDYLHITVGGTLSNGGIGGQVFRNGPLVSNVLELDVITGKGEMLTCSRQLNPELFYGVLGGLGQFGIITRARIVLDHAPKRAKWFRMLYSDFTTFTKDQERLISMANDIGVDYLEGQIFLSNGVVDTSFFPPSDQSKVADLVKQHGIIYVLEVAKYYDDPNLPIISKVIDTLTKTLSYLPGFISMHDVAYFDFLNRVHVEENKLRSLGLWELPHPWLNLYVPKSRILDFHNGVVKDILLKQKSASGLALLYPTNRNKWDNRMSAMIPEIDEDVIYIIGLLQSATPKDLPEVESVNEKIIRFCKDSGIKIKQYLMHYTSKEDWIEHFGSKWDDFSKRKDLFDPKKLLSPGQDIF
Experimental: IC50 measurements were done using the assay in microtitre plate. Each well contained 100 μL of PMS/MTT [phenazine methosulfate/3-(4,5-dimethylthiazol-2-yl)-2,5-diphenyltetrazolium bromide] reaction mixture (final concentrations: 0.1 M KH2PO4, pH 7.4, 1 mM MTT, 0.2 mM PMS) containing the tested compound (3×10^−7 M-3×10^−4 M) and 30 μM N^6-isopentenyladenine (iP) as a substrate. 100 μL of cell-free growth medium of S. cerevisiae strain 23344c ura^− harboring the plasmid pYES2-AtCKX2 was directly used as a source of AtCKX2. Plates were incubated in the dark for 30 min at 37° C. and the enzymatic reaction was stopped by 25 μL of 35% acetic acid. The absorbance at 578 nm was measured using spectrophotometer Tecan. Absorbance of the sample without iP was subtracted.
The IC50 value, the compound concentration that inhibits the enzyme activity to 50%, was calculated from the obtained dose response curves. The values shown in Table 7 are means of three replicates and the entire test was repeated at least twice. […] Compound 12 is an effective inhibitor of AtCKX2 activity, app. 3-times stronger that thidiazuron and only app. 3-times weaker than the structurally related compound INCYDE (2-chloro-6-(3-methoxyanilino)purine).

COc1cccc(Nc2nc(Cl)nc3c2ncn3C2CCCCO2)c1 (centres unmarked) [compound 12, 2-chloro-6-(3-methoxyanilino)-9-(tetrahydropyran-2-yl)purine]
Estimated frost resistence (atrifical frost test) - Letal Temperature LT50 [1]: −12.3 * | Number of emerged plants per sq meter - autumn (11th October, 2010) [1]: 60.0 per sq meter | Plant height (cm) - autumn (11th October, 2010) [1]: 6.6 cm | Seed yield (% of control) [1]: 103.1 % of control | increase of artificially estimated frost tolerance [1]: ~5% | increase of the final seed yield [1]: 3.1% | more plants emerged in the same time compared to control [1]: ~20% | Leafs weight - autumn (22th October) ([1]; 15 plants): 11.69** | Root lenght (cm) - autumn (22th October) ([1]; 15 plants): 14.63 cm | Seed yield (t/ha) ([1]; mean from 4 plots): 5.98 t/ha | IC50 at 72 h [2]: > 100 µM | AtCKX2 inhibition, times stronger than thidiazuron (recombinant AtCKX2): ~3 times | AtCKX2 inhibition, times weaker than INCYDE (recombinant AtCKX2): ~3 times | IC50 (recombinant AtCKX2; 30 μM iP substrate, 30 min, 37° C., read-out: IC50): 19.5 µM
